Laboratory results published in PubChem BioAssay AID1963977 (Molecular Pharmacology Branch, DTP, NCI, 2024).

System: 624824-186-R-J3-PDC multicell spheroids, viability
Assay: Anticancer human tumor 624824-186-R-J3-PDC patient-derived colon adenocarcinoma cell line growth inhibition [PI3K]
Conditions: for IC50: curve of first compound; for viability, T/C: stronger effect = lower value
Method in brief: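 Multi-cell spheroids combine tumor cells with HUVEC and human MSCs, treated with targeted agents alone or with inavolisib, alpelisib, duvelisib or copanlisib. Concentrations fall in half-log steps from at or near clinical Cmax, or from 10 microM where Cmax is unknown; viability read-out.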

[1] = second compound 0.0316 µM, first compound 0.000316 µM
[2] = second compound 0.0316 µM, first compound 0.001 µM
[3] = second compound 0.0316 µM, first compound 0.00316 µM
[4] = second compound 0.0316 µM, first compound 0.01 µM
[5] = second compound 0.0316 µM, first compound 0.0316 µM
[6] = second compound 0.0316 µM, first compound 0.1 µM
[7] = second compound 0.1 µM, first compound 0.000316 µM
[8] = second compound 0.1 µM, first compound 0.001 µM
[9] = second compound 0.1 µM, first compound 0.00316 µM
[10] = second compound 0.1 µM, first compound 0.01 µM
[11] = second compound 0.1 µM, first compound 0.0316 µM
[12] = second compound 0.1 µM, first compound 0.1 µM
[13] = second compound 0.316 µM, first compound 0.000316 µM
[14] = second compound 0.316 µM, first compound 0.001 µM
[15] = second compound 0.316 µM, first compound 0.00316 µM
[16] = second compound 0.316 µM, first compound 0.01 µM
[17] = second compound 0.316 µM, first compound 0.0316 µM
[18] = second compound 0.316 µM, first compound 0.1 µM
[19] = second compound 1 µM, first compound 0.000316 µM
[20] = second compound 1 µM, first compound 0.001 µM
[21] = second compound 1 µM, first compound 0.00316 µM
[22] = second compound 1 µM, first compound 0.01 µM
[23] = second compound 1 µM, first compound 0.0316 µM
[24] = second compound 1 µM, first compound 0.1 µM
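Note: spheroids exposed to agents for seven days before luminescence read.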
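Throughout, for viability, T/C: luminescent signal used as a stand-in for spheroid viability; percent viability relative to DMSO vehicle control wells taken as 100%.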

CC(C)n1nc(-c2ccc3oc(N)nc3c2)c2c(N)ncnc21 + CC(Nc1ccc2c(c1)OCCn1cc(N3C(=O)OCC3C(F)F)nc1-2)C(N)=O
IC50 (second compound 0.00316 µM): > 100 nM | IC50 (second compound 0.01 µM): > 100 nM | IC50 (second compound 0.0316 µM): 91.7 nM | IC50 (second compound 0.1 µM): 81.1 nM | IC50 (second compound 0.316 µM): 71 nM | IC50 (second compound 1 µM): 42.2 nM | viability, T/C (second compound 0.00316 µM, first compound 0.000316 µM): 99.7% | viability, T/C (second compound 0.00316 µM, first compound 0.001 µM): 96.8% | viability, T/C (second compound 0.00316 µM, first compound 0.00316 µM): 102% | viability, T/C (second compound 0.00316 µM, first compound 0.01 µM): 101% | viability, T/C (second compound 0.00316 µM, first compound 0.0316 µM): 96.2% | viability, T/C (second compound 0.00316 µM, first compound 0.1 µM): 53.6% | viability, T/C (second compound 0.01 µM, first compound 0.000316 µM): 97.3% | viability, T/C (second compound 0.01 µM, first compound 0.001 µM): 102% | viability, T/C (second compound 0.01 µM, first compound 0.00316 µM): 103% | viability, T/C (second compound 0.01 µM, first compound 0.01 µM): 105% | viability, T/C (second compound 0.01 µM, first compound 0.0316 µM): 93.6% | viability, T/C (second compound 0.01 µM, first compound 0.1 µM): 59.8% | viability, T/C [1]: 105% | viability, T/C [2]: 106% | viability, T/C [3]: 98.2% | viability, T/C [4]: 99.9% | viability, T/C [5]: 93.2% | viability, T/C [6]: 46.5% | viability, T/C [7]: 99.2% | viability, T/C [8]: 106% | viability, T/C [9]: 101% | viability, T/C [10]: 96.3% | viability, T/C [11]: 84.5% | viability, T/C [12]: 42.3% | viability, T/C [13]: 92.4% | viability, T/C [14]: 92.7% | viability, T/C [15]: 90.7% | viability, T/C [16]: 84.9% | viability, T/C [17]: 83% | viability, T/C [18]: 36.2% | viability, T/C [19]: 85.8% | viability, T/C [20]: 86.9% | viability, T/C [21]: 86.5% | viability, T/C [22]: 70.5% | viability, T/C [23]: 59.5% | viability, T/C [24]: 26.2%

CC(C)n1nc(-c2ccc3oc(N)nc3c2)c2c(N)ncnc21 + CC(Nc1ncnc2nc[nH]c12)c1cc2cccc(Cl)c2c(=O)n1-c1ccccc1
IC50 (second compound 0.0316 µM): > 100 nM | IC50 (second compound 0.1 µM): > 100 nM | IC50 (second compound 0.316 µM): > 100 nM | IC50 (second compound 1 µM): > 100 nM | IC50 (second compound 3.16 µM): 91.8 nM | IC50 (second compound 10 µM): 61.9 nM | viability, T/C [1]: 97.5% | viability, T/C [2]: 102% | viability, T/C [3]: 103% | viability, T/C [4]: 101% | viability, T/C [5]: 98.7% | viability, T/C [6]: 62.4% | viability, T/C [7]: 95.5% | viability, T/C [8]: 107% | viability, T/C [9]: 116% | viability, T/C [10]: 107% | viability, T/C [11]: 91.5% | viability, T/C [12]: 69% | viability, T/C [13]: 98.8% | viability, T/C [14]: 101% | viability, T/C [15]: 113% | viability, T/C [16]: 109% | viability, T/C [17]: 97.1% | viability, T/C [18]: 58.7% | viability, T/C [19]: 102% | viability, T/C [20]: 111% | viability, T/C [21]: 100% | viability, T/C [22]: 103% | viability, T/C [23]: 98.1% | viability, T/C [24]: 62.2% | viability, T/C (second compound 3.16 µM, first compound 0.000316 µM): 105% | viability, T/C (second compound 3.16 µM, first compound 0.001 µM): 111% | viability, T/C (second compound 3.16 µM, first compound 0.00316 µM): 96.3% | viability, T/C (second compound 3.16 µM, first compound 0.01 µM): 97.1% | viability, T/C (second compound 3.16 µM, first compound 0.0316 µM): 85.3% | viability, T/C (second compound 3.16 µM, first compound 0.1 µM): 46.6% | viability, T/C (second compound 10 µM, first compound 0.000316 µM): 93.2% | viability, T/C (second compound 10 µM, first compound 0.001 µM): 91.3% | viability, T/C (second compound 10 µM, first compound 0.00316 µM): 95.1% | viability, T/C (second compound 10 µM, first compound 0.01 µM): 79.9% | viability, T/C (second compound 10 µM, first compound 0.0316 µM): 68.1% | viability, T/C (second compound 10 µM, first compound 0.1 µM): 37.6%
